Measured values: patent US20080031868A1, “HUMAN LYSOZYME MEDICINE, ITS MANUFACTURING METHOD AND APPLICATION THEREOF” (priority 2005, published 2008)
Values after ≈ are worked out from the molar mass of the structure shown.

Assays:
HELA cell = assay: Toxicity to HELA cell (CPE, Reed-Muench); conditions: 6 days
Description: 1. Determination of the Toxicity of Recombinant Human Lysozyme to HELA Cell:
HELA cells were seeded on 96-well culture plates at the concentration of 400,000/mi and grown at 37° C. in a 5% CO2 incubator for 2 hours. 100 μl recombinant human lysozyme which were double-diluted from 6000 ug/ml to 11.7 ug/ml and positive reference medicine which were double-diluted from 6000 ug/ml to 11.7 ug/ml were respectively added to 3 wells per concentration. At the same time the reference cells were cultivated at 37° C. in a 5% CO2 incubator for 6 days. Inverted microscope was used everyday to observe the cytopathic effect (CPE). The cytopathic effect under 25% was recorded as “+”, the cytopathic effect under 26%˜50% was recorded as “++”, the cytopathic effect under 51%˜75% was recorded as “+++” and the cytopathic effect under 76%˜100% was recorded as “++++”. Drug median toxic dose (TD50) and minimum toxic dose (TD0) were calculated by using Reed-Muench method.

No. 04 Coronavirus [1] = assay: Inhibition on No. 04 Coronavirus in HELA cells (CPE method); format: cell-based; conditions: 2 h
Description: HELA cells were seeded on 96-well cultivation plates at the concentration of 400,000/ml and grown to monolayer at 37° C. in 5% CO2 incubator for 24 hours. After removal of cultivation liquid, coronavirus liquid were added to HELA cells and absorbed at 37° C. in 5% CO2 incubator for 2 hours. […] At the same time reference cells and reference virous were cultivated at 37° C. in 5% CO2 incubator for 5 to 7 days. Inverted microscope was used everyday to observe the cytopathic effect (CPE) of virus. The determination were ended according to the appearance of “+++-++++”. […] The determination was repeated three times.

No. 04 Coronavirus [2] = assay: organism not typed; format: cell-based
Description: HELA cells were seeded on 96-well cultivation plates at the concentration of 400,000/ml and grown to monolayer at 37° C. in 5% CO2 incubator for 24 hours. […] Then 100 TCID50coronavirus liquid were added to HELA cells. At the same time reference cell and reference virous were cultivated at 37° C. in 5% CO2 incubator for 5 to 7 days. At the same time normal cell reference and virous reference were cultivated at 37° C. in 5% CO2 incubator for 5 to 7 days. Inverted microscope was used everyday to observe the cytopathic effect (CPE) of virus. The determination were ended according to the appearance of “+++-++++”. […] The determination was repeated three times.

[3] = read-out: minimum inhibitory concentration (MIC)
[4] = HeLa, read-out: median inhibitory concentration (IC50)

For `Nc1nc(O)c2ncn(COC(CO)CO)c2n1` [Ganciclovir, reference compound], the “minimum toxic dose (TD0)” value (HELA cell; HELA cells, CPE, Reed-Muench) was 6000 ± 0 µg/mL, the “median toxic dose (TD50)” value (HELA cell; human) was 6000 ± 0 µg/mL and the MIC (No. 04 Coronavirus [1]; [3]) was 23.4 µg/mL (≈ 91.8 µM). The IC50 (No. 04 Coronavirus [1]; [4]) was 11.7 µg/mL (≈ 45.8 µM), the IC50 (No. 04 Coronavirus [2]; [4]) was 11.7 µg/mL (≈ 45.8 µM) and the MIC (No. 04 Coronavirus [2]; [3]) was 23.4 µg/mL (≈ 91.8 µM).
